{"source": "paper PMC6099706", "about": "“Anti-Mycobacterium tuberculosis Activity of Esters of Quinoxaline 1,4-Di-N-Oxide” (Molecules : A Journal of Synthetic Chemistry and Natural …, 2018)", "assay_in_all_cases": "microbe, parasite or virus in culture", "assay_type_in_all_cases": "cell-based", "settings_in_all_cases": "Mycobacterium tuberculosis", "key": {"[1]": {"system": "M. tb H37Rv ER (ethambutol resistant)"}, "[2]": {"system": "M. tb H37Rv RR (rifampicin resistant)"}, "[3]": {"system": "M. tb H37Rv IR (isoniazid resistant)"}, "[4]": {"system": "M. tb H37Rv SR (streptomycin resistant)"}}, "data": [{"smiles": "COC(=O)c1ccc2c(c1)[n+]([O-])c(C(=O)OC)c(C)[n+]2[O-]", "note": "[Compound T-022]", "values": [{"measurement": "MIC", "setting": "[1]", "result": 0.62, "unit": "µg/mL"}, {"measurement": "MIC", "setting": "[2]", "result": "< 0.31", "unit": "µg/mL"}, {"measurement": "MIC", "setting": "[3]", "result": 0.62, "unit": "µg/mL"}, {"measurement": "MIC", "setting": "[4]", "result": 0.625, "unit": "µg/mL"}]}, {"smiles": "CC(C)OC(=O)c1ccc2c(c1)[n+]([O-])c(C(=O)C(C)C)c(C(F)(F)F)[n+]2[O-]", "note": "[Compound T-085]", "values": [{"measurement": "MIC", "setting": "[1]", "result": "< 0.31", "unit": "µg/mL"}, {"measurement": "MIC", "setting": "[2]", "result": 0.625, "unit": "µg/mL"}, {"measurement": "MIC", "setting": "[3]", "result": "< 0.31", "unit": "µg/mL"}, {"measurement": "MIC", "setting": "[4]", "result": 1.25, "unit": "µg/mL"}]}, {"smiles": "CC(C)OC(=O)c1ccc2c(c1)[n+]([O-])c(C(=O)c1cccs1)c(C(F)(F)F)[n+]2[O-]", "note": "[Compound T-069]", "values": [{"measurement": "MIC", "setting": "[1]", "result": 1.25, "unit": "µg/mL"}, {"measurement": "MIC", "setting": "[2]", "result": 1.25, "unit": "µg/mL"}, {"measurement": "MIC", "setting": "[3]", "result": 0.62, "unit": "µg/mL"}, {"measurement": "MIC", "setting": "[4]", "result": 1.25, "unit": "µg/mL"}]}, {"smiles": "CCCOC(=O)c1ccc2c(c1)[n+]([O-])c(C(=O)c1cccs1)c(C(F)(F)F)[n+]2[O-]", "note": "[Compound T-089]", "values": [{"measurement": "MIC", "setting": "[1]", "result": 0.625, "unit": "µg/mL"}, {"measurement": "MIC", "setting": "[2]", "result": 1.25, "unit": "µg/mL"}, {"measurement": "MIC", "setting": "[3]", "result": "< 0.31", "unit": "µg/mL"}, {"measurement": "MIC", "setting": "[4]", "result": 1.25, "unit": "µg/mL"}]}, {"smiles": "CCOC(=O)c1ccc2c(c1)[n+]([O-])c(C(C)=O)c(C(F)(F)F)[n+]2[O-]", "note": "[Compound T-006]", "values": [{"measurement": "MIC", "setting": "[1]", "result": 1.25, "unit": "µg/mL"}, {"measurement": "MIC", "setting": "[2]", "result": 1.25, "unit": "µg/mL"}, {"measurement": "MIC", "setting": "[3]", "result": 1.25, "unit": "µg/mL"}, {"measurement": "MIC", "setting": "[4]", "result": 5, "unit": "µg/mL"}]}, {"smiles": "CCCOC(=O)c1ccc2c(c1)[n+]([O-])c(C(=O)OC)c(C)[n+]2[O-]", "note": "[Compound T-088]", "values": [{"measurement": "MIC", "setting": "[1]", "result": "< 0.31", "unit": "µg/mL"}, {"measurement": "MIC", "setting": "[2]", "result": "< 0.31", "unit": "µg/mL"}, {"measurement": "MIC", "setting": "[3]", "result": 0.62, "unit": "µg/mL"}, {"measurement": "MIC", "setting": "[4]", "result": 0.625, "unit": "µg/mL"}]}, {"smiles": "COC(=O)c1ccc2c(c1)[n+]([O-])c(C(=O)c1ccccc1)c(C(F)(F)F)[n+]2[O-]", "note": "[Compound T-018]", "values": [{"measurement": "MIC", "setting": "[1]", "result": 0.62, "unit": "µg/mL"}, {"measurement": "MIC", "setting": "[2]", "result": 0.625, "unit": "µg/mL"}, {"measurement": "MIC", "setting": "[3]", "result": 0.62, "unit": "µg/mL"}, {"measurement": "MIC", "setting": "[4]", "result": 1.25, "unit": "µg/mL"}]}, {"smiles": "CCOC(=O)c1ccc2c(c1)[n+]([O-])c(C(=O)c1cccs1)c(C(F)(F)F)[n+]2[O-]", "note": "[Compound T-011]", "values": [{"measurement": "MIC", "setting": "[1]", "result": "< 0.31", "unit": "µg/mL"}, {"measurement": "MIC", "setting": "[2]", "result": "< 0.31", "unit": "µg/mL"}, {"measurement": "MIC", "setting": "[3]", "result": "< 0.31", "unit": "µg/mL"}, {"measurement": "MIC", "setting": "[4]", "result": 0.625, "unit": "µg/mL"}]}, {"smiles": "CO[C@H]1/C=C/O[C@@]2(C)Oc3c(C)c(O)c4c(O)c(c(/C=N/N5CCN(C)CC5)c(O)c4c3C2=O)NC(=O)/C(C)=C\\C=C\\[C@H](C)[C@H](O)[C@@H](C)[C@@H](O)[C@@H](C)[C@H](OC(C)=O)[C@@H]1C", "note": "[RMP, rifampicin, reference compound]", "values": [{"measurement": "MIC", "setting": "[1]", "result": "< 0.06", "unit": "µg/mL"}, {"measurement": "MIC", "setting": "[2]", "result": "> 2", "unit": "µg/mL"}, {"measurement": "MIC", "setting": "[3]", "result": "< 0.06", "unit": "µg/mL"}, {"measurement": "MIC", "setting": "[4]", "result": "< 0.06", "unit": "µg/mL"}]}]}
